Experiments:
male CD1 mice = test: In vivo predictive sedation-hypnosis test (traveled distance); settings: Mus musculus, ip, 0.5 h, traveled distance over 30 min versus control, read-out: % inhib motor activity; for inhibition in vivo at 98 µmol/kg: 98.0 μmol/kg intraperitoneal; for inhibition in vivo at 0.98 µmol/kg: 0.98 μmol/kg intraperitoneal
Description: b) In Vivo Determination of Predictive Sedative-hypnotic Action
The in vivo effects of these compounds were assessed by a predictive sedation-hypnosis test in mice (D. J. Sanger et al., Eur. J. Pharmacol., 313, 35-42, 1996; and G. Griebel et al., Psychopharmacology, 146, 205-213, 1999).
Groups of 5-8 male CD1 mice, weighing 22-26 g at the time of test, were used. […] Compounds were suspended in 0.25% agar with one drop of Tween in a volume of 10 mL/kg. Control animals were given the vehicle alone. Using a Smart System (Panlab, S. L., Spain) the traveled distance in cm is recorded for each mouse at 5-minutes intervals during a period of 30 minutes after dosing. The inhibition percentage of traveled distance of treated animals versus control animals (the first 5 minutes were discarded) was calculated.

α1-GABAA receptor = test: Ligand-binding assay, radiolabeled flumazenil competition, cerebellum membranes; settings: rat cerebellum membranes, radiolabeled flumazenil 1 nM
Description: (§1) a) Ligand-binding Assays. Determination of the Affinity of Test Compounds for α1- and α2-GABAA Receptor
(§2) Male Sprague-Dawley rats weighing 200-250 g at the time of experiment were used. After decapitation of the animal, the cerebellum (tissue that mostly contains α1-GABAA receptor) and spinal cord (tissue that mostly contains α2-GABAA receptor) were removed. The membranes were prepared according to the method by J. Lameh et al. (Prog. Neuro-Psychopharmacol. Biol. Psychiatry, 24, 979-991, 2000) and H. Noguchi et al. (Eur J Pharm, 434, 21-28, 2002) with slight modifications. Once the tissues weighed, they were suspended in 50 mM Tris.HCl (pH 7.4), 1:40 (v/v), or sucrose 0.32 M in the case of spinal cord, homogenized and then centrifuged at 20000 g for 10 minutes at 7° C. The resulting pellet was resuspended under the same conditions and centrifuged again. The pellet was finally resuspended on a minimum volume and kept at −80° C. overnight. A slight modification was used in the case of spinal cord at the first centrifugation step. Centrifugation speed was at 1000 g and the supernatant was collected instead of discarded as in cerebellum. Then, supernatant was centrifuged at 20000 g and resuspended twice more under the same conditions described above for cerebellum. On the next day, the process was repeated until the final pellet was resuspended at a ratio of 1:10 (v/v) in the case of cerebellum and at a ratio of 1:5 (v/v) in the case of spinal cord.
(§3) Affinity was determined by competitive tests using radiolabeled flumazenil as ligand. The tests were performed according to the methods described by S. Arbilla et al. (Eur. J. Pharmacol., 130, 257-263, 1986); and Y. Wu et al. (Eur. J. Pharmacol., 278, 125-132, 1995) using 96-well microtiter plates. The membranes containing the study receptors, flumazenil (radiolabeling at a final concentration of 1 nM) and ascending concentrations of test compounds (in a total volume of 230 μl in 50 mM [pH 7.4] Tris.HCl buffer) were incubated. Simultaneously, the membranes were only incubated with the radiolabeled flumazenil (total binding, 100%) and in the presence of an elevated concentration of unradiolabeled flumazenil (non-specific binding, % estimation of radiolabeled ligand). The reactions started on adding the radiolabeled ligand followed by incubation for 60 minutes at 4° C. At the end of the incubation period, 200 μl of reaction were transferred to a multiscreen plate (Millipore) and filtered using a vacuum manifold and then washed three times with cold test buffer. The multiscreen plates were equipped with a GF/B filter that retained the membranes containing the receptors and the radiolabeled ligand which had been bound to the receptors. After washing, the plates were left till dry. Once dried, scintillation liquid was added and left under stirring overnight. The next day the plates were counted using a Perkin-Elmer Microbeta scintillation counter.
(§4) For analysis of the results the percentage of specific binding for every concentration of test compound was calculated as follows: specific binding−(X−N/T−N)×100 where, X: amount of bound ligand for every concentration of compound. T: total binding, maximum amount bound to the radiolabeled ligand. N: non-specific binding, amount of radiolabeled ligand bound in a non-specific way irrespective of the receptor used.
(§5) Every concentrations of compound were tested in triplicate and their mean values were used to determine the experimental values of % specific binding versus the concentration of compound. Affinity data are expressed as % inhibition at 10^−5M and 10^−7M concentrations.

α2-GABAA receptor = test: Ligand-binding assay, radiolabeled flumazenil competition, spinal cord membranes; settings: rat spinal cord membranes, radiolabeled flumazenil 1 nM
Description: as §1, §2, §3, §4, §5

SMILES | inhibition in vivo at 98 µmol/kg (male CD1 mice) [%] | % inhib 10^−5 M, affinity for the α1-subunit of the GABAA receptor (α1-GABAA receptor) [%] | % inhib 10^−7 M, affinity for the α1-subunit of the GABAA receptor (α1-GABAA receptor) [%] | % inhib 10^−5 M, affinity for the α2-subunit of the GABAA receptor (α2-GABAA receptor) [%] | % inhib 10^−7 M, affinity for the α2-subunit of the GABAA receptor (α2-GABAA receptor) [%] | inhibition in vivo at 0.98 µmol/kg (male CD1 mice) [%]
CCN(CC)C(=O)Cc1c(-c2ccc(OC)cc2)nc2ccc(C)nn12 [Example 70, N,N-Diethyl-2-[2-(4-methoxy-phenyl)-6-methyl-imidazo[1,2-b]pyridazin-3-yl]-acetamide] | 87 | 99.9 | 84.5 | 80.3 | 23.6 | –
Cc1ccc(-c2nc3ccc(C)nn3c2CC(=O)NC2CC2)cc1 [Example 93, N-Cyclopropyl-2-(6-methyl-2-p-tolyl-imidazo[1,2-b]pyridazin-3-yl)-acetamide] | 93.2 | 100.0 | 78.2 | – | – | –
COc1ccc(-c2nc3ccc(OC)nn3c2CC(=O)N2CCCCC2)cc1 [Example 78, 2-[6-Methoxy-2-(4-methoxy-phenyl)-imidazo[1,2-b]pyridazin-3-yl]-1-piperidin-1-yl-ethanone] | 91.1 | 98.3 | 26.5 | – | – | –
Cc1ccc(-c2nc3ccc(C)nn3c2CC(=O)Nc2ccc3ccccc3n2)cc1 [Example 94, 2-(6-Methyl-2-p-tolyl-imidazo[1,2-b]pyridazin-3-yl)-N-quinolin-2-yl-acetamide] | 93.5 | 100.1 | 65.1 | – | – | –
COc1ccc(-c2nc3ccc(C)nn3c2CC(=O)N2CCCCC2)cc1 [Example 73, 2-[2-(4-Methoxy-phenyl)-6-methyl-imidazo[1,2-b]pyridazin-3-yl]-1-piperidin-1-yl-ethanone] | 94.1 | 99.9 | 76.5 | 77.0 | 20.6 | –
CCOc1ccc2nc(-c3ccc(F)cc3)c(CC(=O)N(CC)CC)n2n1 [Example 66, 2-[6-Ethoxy-2-(4-fluoro-phenyl)-imidazo[1,2-b]pyridazin-3-yl]-N,N-diethyl-acetamide] | 96 | 98.3 | 50.4 | 79.4 | 7.8 | –
CCCN(CCC)C(=O)Cc1c(-c2ccc(OC)cc2)nc2ccc(C)nn12 [Example 71, 2-[2-(4-Methoxy-phenyl)-6-methyl-imidazo[1,2-b]pyridazin-3-yl]-N,N-dipropyl-acetamide] | 96 | 100.2 | 95.0 | 88.5 | 50.6 | –
CCCN(CCC)C(=O)Cc1c(-c2ccccc2)nc2ccc(C)nn12 [Example 35, 2-(6-Methyl-2-phenyl-imidazo[1,2-b]pyridazin-3-yl)-N,N-dipropyl-acetamide] | 80.6 | 100.2 | 97.5 | 92.5 | 57.9 | 6.76
CCCN(CCC)C(=O)Cc1c(-c2ccccc2)nc2ccc(OC)nn12 [Example 26, 2-(6-Methoxy-2-phenyl-imidazo[1,2-b]pyridazin-3-yl)-N,N-dipropyl-acetamide] | 91.5 | 100.0 | 73.5 | 84.5 | 27.4 | 19.2
CCCN(CCC)C(=O)Cc1c(-c2ccc(F)cc2)nc2ccc(OCC)nn12 [Example 43, 2-[6-Ethoxy-2-(4-fluoro-phenyl)-imidazo[1,2-b]pyridazin-3-yl]-N,N-dipropyl-acetamide] | 95.7 | 99.5 | 49.9 | 80.3 | 20.1 | –
CCCN(CCC)C(=O)Cc1c(-c2ccc(F)cc2)nc2ccc(OC)nn12 [Example 41, 2-[2-(4-Fluoro-phenyl)-6-methoxy-imidazo[1,2-b]pyridazin-3-yl]-N,N-dipropyl-acetamide] | 91.2 | 99.8 | 75.4 | 85.3 | 17.0 | 15.7
Cc1ccc(-c2nc3ccc(C)nn3c2CC(=O)N(C(C)C)C(C)C)cc1 [Example 84, N,N-Diisopropyl-2-(6-methyl-2-p-tolyl-imidazo[1,2-b]pyridazin-3-yl)-acetamide] | 90.8 | 100.0 | 91.7 | 63.9 | 3.1 | –
Cc1ccc(-c2nc3ccc(C)nn3c2CC(=O)NC2CCCC2)cc1 [Example 91, N-Cyclopentyl-2-(6-methyl-2-p-tolyl-imidazo[1,2-b]pyridazin-3-yl)-acetamide] | 93 | 99.1 | 45.8 | – | – | –
Cc1ccc(-c2nc3ccc(C)nn3c2CC(=O)NN2CCOCC2)cc1 [Example 105, 2-(6-Methyl-2-p-tolyl-imidazo[1,2-b]pyridazin-3-yl)-N-morpholin-4-yl-acetamide] | 94 | 98.8 | 56.0 | – | – | –
Cc1ccc(NC(=O)Cc2c(-c3ccc(C)cc3)nc3ccc(C)nn23)cc1 [Example 87, 2-(6-Methyl-2-p-tolyl-imidazo[1,2-b]pyridazin-3-yl)-N-p-tolyl-acetamide] | 90.7 | 99.3 | 57.2 | – | – | –
Cc1ccc(-c2nc3ccc(C)nn3c2CC(=O)NN2CCCCC2)cc1 [Example 106, 2-(6-Methyl-2-p-tolyl-imidazo[1,2-b]pyridazin-3-yl)-N-piperidin-1-yl-acetamide] | 94 | 99.5 | 53.7 | – | – | –

— patent US8993562B2, “Imidazo[1,2-b]pyridazines, processes, uses, intermediates and compositions” (Ferrer Internacional, S.A., priority 2006, dated 2015)
